Data published in patent US20260265305A1, “POLYPEPTIDE DERIVATIVE FOR ORAL DELIVERY” (Hangzhou Sciwind Biosciences Co., Ltd., priority 2023, published 2026).
Numbered stars: 1 amine (or outer) side, 2 acyl side, 3 side chain; on linkers, the order of the positions; unused ones are H or OH. Peptide text beside a SMILES is read from it. * marks the point of attachment. C20 diacid = O=C(O)CCCCCCCCCCCCCCCCCCC(=O)*; C18 diacid = O=C(O)CCCCCCCCCCCCCCCCC(=O)*; βAsp = O=C(O)[C@H](CC(=O)[*:2])N[*:1]; Trx = NC[C@H]1CC[C@H](C(=O)O)CC1; Inp = O=C(O)C1CCNCC1

Experiments:
[1] = molecular target: T1, amylin receptor (hAMY3R) (Homo sapiens, UniProt O60896+P30988); test: Amylin receptor agonism testing, CRE-luciferase assay in stably transfected CHO-K1/Ga15/AMY3 cells; format: cell-based; settings: for Fold change in activity against hAMY3R: relative to D1 as benchmark
T1 construct: host or cells: CHO-K1/Ga15/AMY3 cells, further stably transfected with a CRE-luciferase plasmid
T1 sequence (P30988 25-474): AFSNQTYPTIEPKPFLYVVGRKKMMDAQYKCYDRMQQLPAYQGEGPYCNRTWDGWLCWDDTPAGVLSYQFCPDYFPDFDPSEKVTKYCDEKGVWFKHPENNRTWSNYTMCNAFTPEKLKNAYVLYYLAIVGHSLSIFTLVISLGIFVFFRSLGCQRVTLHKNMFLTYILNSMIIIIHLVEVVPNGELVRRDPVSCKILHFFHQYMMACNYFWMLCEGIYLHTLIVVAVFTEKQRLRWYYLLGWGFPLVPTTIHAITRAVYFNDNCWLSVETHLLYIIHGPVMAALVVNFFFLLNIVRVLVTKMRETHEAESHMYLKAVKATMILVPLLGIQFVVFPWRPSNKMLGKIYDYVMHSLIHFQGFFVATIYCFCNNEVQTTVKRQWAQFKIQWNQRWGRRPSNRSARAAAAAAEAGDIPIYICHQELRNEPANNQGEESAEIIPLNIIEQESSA
T1 sequence (O60896 24-148): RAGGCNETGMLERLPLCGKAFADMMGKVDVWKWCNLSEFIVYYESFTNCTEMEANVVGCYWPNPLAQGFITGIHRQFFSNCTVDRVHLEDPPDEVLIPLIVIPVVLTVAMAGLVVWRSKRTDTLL
From the text: The objective of this assay is to test the potency of the polypeptide derivatives in the present application on amylin and calcitonin receptors in vitro using a luciferase assay.
Using the standard protocol for construction of an amylin receptor/CRE-luc cell line, CHO-K1/Ga15/AMY3 cells (purchased from GenScript, with the calcitonin receptor and the receptor activity modifying peptide (RAMP) constructed already) were transfected with a plasmid containing a luciferase expression cassette driven by multiple copies of cAMP response elements (CREs). The cells were cultured in an F12 medium containing 200 ug/mL Zeocin, 2 ug/mL puromycin, 100 ug/mL hygromycin, and 400 ug/mL G418 to afford a stably transfected amylin receptor/CRE-luc cell line.
To each well of a white 96-well plate was added 50 μL of the tested sample solution at a respective concentration.
The stably transfected amylin receptor/CRE-luc CHO cells were resuspended in the growth medium at a certain density, and 50 μL of the cell suspension was added at a density of about 20,000 cells per well to the white 96-well plate containing the tested sample solution. After incubation of 24 hours at 37° C. and 5% CO2, 100 μL of a Luciferase substrate was added to each well, incubated for 3 minutes, and finally was tested for luminescence on SpectraMax L (Molecular Devices) with the software SoftMax Pro 7.0.3 GxP. A standard curve was plotted using the fluorescent intensities for calculation of EC50.

[2] = molecular target: T2, calcitonin receptor (hCTR) (Homo sapiens, UniProt P30988); test: Calcitonin receptor agonism, CRE-luciferase assay in stably transfected CHO-K1/CALCR/Ga15 cells; format: cell-based; settings: for EC50: incubation of 24 hours, Table 4, read-out: EC50, activity against the calcitonin receptor in cells; for Fold change in activity against hCTR: relative to D1 as benchmark
T2 construct: host or cells: CHO-K1/CALCR/Ga15 cells, further stably transfected with a CRE-luciferase plasmid
T2 sequence (P30988 25-474): T1 sequence (P30988 25-474)

[3] = Heat accelerated stability assay of polypeptide solutions (40° C., pH about 7.4), reversed phase chromatography; format: physicochemical; settings: 40° C.; for Concentration change on 7 d / Concentration change on 26 d: pH about 7.4, 1 mg/mL; for Concentration change on 7 d / Purity change on 7 d: Day 7; for Concentration change on 26 d / Purity change on 26 d: Day 26; for Purity change on 7 d / Purity change on 26 d: reversed phase chromatography 214 nm; for Purity change on 7 d: purity on 7 d − purity on 0 d; for Purity change on 26 d: purity on 26 d − purity on 0 d
Protocol: A stability test chamber (BINDER GmbH), a 0.01 mg-readability balance (METTLER TOLEDO), a pH meter (METTLER TOLEDO), a biosafety cabinet (ESCO), T2G-II small-sized motor-driven capping machine (Changsha zhongya pharmaceutical equipment co. LTD), a high-speed refrigerated centrifuge (Eppendorf), a sterilizer cabinet (Shinva Medical), Agilent 1260 high-performance liquid chromatographer, and Sepax Bio-C18 4.6*250 mm 3 μm 200 Å reversed phase column were used.
Reagents and consumables included: ultrapure water (18.2 MΩ, self-made), acetonitrile (HPLC grade), trifluoroacetic acid (HPLC grade), sodium dihydrogen phosphate (pharmaceutical grade, Hunan Jiudian Hongyang Pharmaceutical Co., Ltd), hydrochloric acid (pharmaceutical grade, Hunan Er-Kang Pharmaceutical Co., Ltd), sodium hydroxide (Analytical Reagent grade, Hushi®, Sinopharm Chemical Reagent Co., Ltd), vials, rubber stoppers, disposable syringes, and sterile filters.
The lyophilized powder (1 mg/mL) of the polypeptide derivative prepared in accordance with the method of Example 1 was mixed with sodium dihydrogen phosphate (1.42 mg/mL) and dissolved in ultrapure water in the indicated mass-volume ratios. After adjusting pH to about 7.4 with hydrochloric acid/sodium hydroxide, the solution was filtered into a sterilized vial in a clean bench using a 0.22 μm sterile filter. The vial was then capped and placed into the stability test chamber at 40° C. Detections were made on Days 7 (7d) and 26 (26d), and during the assay, changes in the characteristics and properties of the polypeptide were observed and recorded. The sample was then centrifuged for 3 min at 10,000 rpm at 4° C., and the supernatant was transferred to a liquid phase sample vial for detecting the concentration and purity of the polypeptides using liquid phase chromatography described as below, wherein the concentration of the polypeptide=peak area/injection volume/extinction coefficient/60×flow rate, and the purity of the polypeptide=target peak area/total peak area×100%.
Conditions of the reversed phase chromatography Flow rate: 1.0 ml/min; Autosampler temperature: 15° C.; Column temperature: 25° C.; Detection wavelengths: 280 nm and 214 nm; Mobile phase A: 100% H2O+0.05% TFA; Mobile phase B: 100% ACN; and Gradient of elution listed in Table 6: […]

Compound	Fold change in activity against hAMY3R [1]	EC50 [2]	Fold change in activity against hCTR [2]	Concentration change on 7 d [3]	Concentration change on 26 d [3]	Purity change on 7 d [3]	Purity change on 26 d [3]	EC50 ([1]; Table 5 integrated analysis, read-out: hAMY3R EC50)
CC(C)C[C@H](NC(=O)[C@H](CCCNC(=N)N)NC(=O)CNC(=O)[C@H](CC(C)C)NC(=O)[C@@H](NC(=O)[C@H](C)NC(=O)[C@@H](NC(=O)[C@H](CO)NC(=O)[C@H](CC(C)C)NC(=O)[C@H](CCC(N)=O)NC(=O)[C@H](CO)NC(=O)[C@H](C)NC(=O)[C@H](CCC(=O)O)NC(=O)CCCCCCCCCCCCCCCCC(=O)O)[C@@H](C)O)C(C)C)C(=O)N[C@@H](CO)C(=O)N[C@@H](CC(=O)O)C(=O)N[C@@H](CCC(=O)O)C(=O)N[C@@H](CC(C)C)C(=O)N[C@@H](Cc1c[nH]cn1)C(=O)N[C@@H](CCCNC(=N)N)C(=O)N[C@@H](CC(C)C)C(=O)N[C@@H](CCC(N)=O)C(=O)N[C@@H](CC(=O)O)C(=O)N[C@@H](Cc1ccc(O)cc1)C(=O)N1CCC[C@H]1C(=O)N[C@@H](CCCNC(=N)N)C(=O)N[C@H](C(=O)N[C@@H](CC(=O)O)C(=O)N[C@H](C(=O)NCC(=O)N[C@@H](CO)C(=O)NCC(=O)N[C@@H](CO)C(=O)N1CCC[C@H]1C(N)=O)C(C)C)[C@@H](C)O [M11] ({C18 diacid}-EASQLSTAVLGRLSDELHRLQDYPRTDVGSGSP-NH2)	2.250	0.071 nM	1.211	−3.472%	−9.840%	1.01%	−2.93%	–
CC(C)C[C@H](NC(=O)[C@H](CCCNC(=N)N)NC(=O)CNC(=O)[C@H](CC(C)C)NC(=O)[C@@H](NC(=O)[C@H](C)NC(=O)[C@@H](NC(=O)[C@H](CO)NC(=O)[C@H](CC(C)C)NC(=O)[C@H](CCC(N)=O)NC(=O)[C@H](CO)NC(=O)[C@H](C)NC(=O)C[C@H](NC(=O)CCCCCCCCCCCCCCCCCCC(=O)O)C(=O)O)[C@@H](C)O)C(C)C)C(=O)N[C@@H](CO)C(=O)N[C@@H](CC(=O)O)C(=O)N[C@@H](CCC(=O)O)C(=O)N[C@@H](CC(C)C)C(=O)N[C@@H](Cc1c[nH]cn1)C(=O)N[C@@H](CCCNC(=N)N)C(=O)N[C@@H](CC(C)C)C(=O)N[C@@H](CCC(N)=O)C(=O)N[C@@H](CC(=O)O)C(=O)N[C@@H](Cc1ccc(O)cc1)C(=O)N1CCC[C@H]1C(=O)N[C@@H](CCCNC(=N)N)C(=O)N[C@H](C(=O)N[C@@H](CC(=O)O)C(=O)N[C@H](C(=O)NCC(=O)N[C@@H](CO)C(=O)NCC(=O)N[C@@H](CO)C(=O)N1CCC[C@H]1C(N)=O)C(C)C)[C@@H](C)O [M12] ({C20 diacid-βAsp}-ASQLSTAVLGRLSDELHRLQDYPRTDVGSGSP-NH2)	2.118	0.073 nM	1.178	No change (concentration change of less than 1% (denoted as “no change”))	−8.378%	1.12%	−1.96%	–
CC(C)C[C@H](NC(=O)[C@H](CCCNC(=N)N)NC(=O)CNC(=O)[C@H](CC(C)C)NC(=O)[C@@H](NC(=O)[C@H](C)NC(=O)[C@@H](NC(=O)[C@H](CO)NC(=O)[C@H](CC(C)C)NC(=O)[C@H](CCC(N)=O)NC(=O)[C@H](CO)NC(=O)[C@H](C)NC(=O)[C@H]1CC[C@H](CNC(=O)CCCCCCCCCCCCCCCCCCC(=O)O)CC1)[C@@H](C)O)C(C)C)C(=O)N[C@@H](CO)C(=O)N[C@@H](CC(=O)O)C(=O)N[C@@H](CCC(=O)O)C(=O)N[C@@H](CC(C)C)C(=O)N[C@@H](Cc1c[nH]cn1)C(=O)N[C@@H](CCCNC(=N)N)C(=O)N[C@@H](CC(C)C)C(=O)N[C@@H](CCC(N)=O)C(=O)N[C@@H](CC(=O)O)C(=O)N[C@@H](Cc1ccc(O)cc1)C(=O)N1CCC[C@H]1C(=O)N[C@@H](CCCNC(=N)N)C(=O)N[C@H](C(=O)N[C@@H](CC(=O)O)C(=O)N[C@H](C(=O)NCC(=O)N[C@@H](CO)C(=O)NCC(=O)N[C@@H](CO)C(=O)N1CCC[C@H]1C(N)=O)C(C)C)[C@@H](C)O [M14] ({C20 diacid-Trx}-ASQLSTAVLGRLSDELHRLQDYPRTDVGSGSP-NH2)	0.079	–	0.147	−3.464%	−8.377%	No change	−1.77%	–
CC(C)C[C@H](NC(=O)[C@H](CCCNC(=N)N)NC(=O)CNC(=O)[C@H](CC(C)C)NC(=O)[C@@H](NC(=O)[C@H](C)NC(=O)[C@@H](NC(=O)[C@H](CO)NC(=O)[C@H](CC(C)C)NC(=O)[C@H](CCC(N)=O)NC(=O)[C@H](CO)NC(=O)[C@H](C)NC(=O)[C@H]1CC[C@H](CNC(=O)CCCCCCCCCCCCCCCCC(=O)O)CC1)[C@@H](C)O)C(C)C)C(=O)N[C@@H](CO)C(=O)N[C@@H](CC(=O)O)C(=O)N[C@@H](CCC(=O)O)C(=O)N[C@@H](CC(C)C)C(=O)N[C@@H](Cc1c[nH]cn1)C(=O)N[C@@H](CCCNC(=N)N)C(=O)N[C@@H](CC(C)C)C(=O)N[C@@H](CCC(N)=O)C(=O)N[C@@H](CC(=O)O)C(=O)N[C@@H](Cc1ccc(O)cc1)C(=O)N1CCC[C@H]1C(=O)N[C@@H](CCCNC(=N)N)C(=O)N[C@H](C(=O)N[C@@H](CC(=O)O)C(=O)N[C@H](C(=O)NCC(=O)N[C@@H](CO)C(=O)NCC(=O)N[C@@H](CO)C(=O)N1CCC[C@H]1C(N)=O)C(C)C)[C@@H](C)O [M15] ({C18 diacid-Trx}-ASQLSTAVLGRLSDELHRLQDYPRTDVGSGSP-NH2)	0.303	–	0.183	No change (concentration change of less than 1% (denoted as “no change”))	−10.824%	No change	−5.67%	0.119 nM
CC(C)C[C@H](NC(=O)[C@H](CCCNC(=N)N)NC(=O)CNC(=O)[C@H](CC(C)C)NC(=O)[C@@H](NC(=O)[C@H](C)NC(=O)[C@@H](NC(=O)[C@H](CO)NC(=O)[C@H](CC(C)C)NC(=O)[C@H](CCC(N)=O)NC(=O)[C@H](CO)NC(=O)[C@H](C)NC(=O)C1CCN(C(=O)CCCCCCCCCCCCCCCCCCC(=O)O)CC1)[C@@H](C)O)C(C)C)C(=O)N[C@@H](CO)C(=O)N[C@@H](CC(=O)O)C(=O)N[C@@H](CCC(=O)O)C(=O)N[C@@H](CC(C)C)C(=O)N[C@@H](Cc1c[nH]cn1)C(=O)N[C@@H](CCCNC(=N)N)C(=O)N[C@@H](CC(C)C)C(=O)N[C@@H](CCC(N)=O)C(=O)N[C@@H](CC(=O)O)C(=O)N[C@@H](Cc1ccc(O)cc1)C(=O)N1CCC[C@H]1C(=O)N[C@@H](CCCNC(=N)N)C(=O)N[C@H](C(=O)N[C@@H](CC(=O)O)C(=O)N[C@H](C(=O)NCC(=O)N[C@@H](CO)C(=O)NCC(=O)N[C@@H](CO)C(=O)N1CCC[C@H]1C(N)=O)C(C)C)[C@@H](C)O [M16] ({C20 diacid-Inp}-ASQLSTAVLGRLSDELHRLQDYPRTDVGSGSP-NH2)	0.439	0.376 nM	0.229	−2.883%	−3.036%	3.42%	2.18%	–
